Reference: patent US6413947B1, “Anilide derivative, production and use thereof” (Takeda Chemical Industries, Ltd., priority 1997, dated 2002)

Tests used:
[1] = target: T1, human CCR5 (Homo sapiens, UniProt P51681); assay: CCR5 antagonistic activity ([125I]-RANTES binding to CHO/CCR5 cells); conditions: Test Compound 1 μM, 100 pM [125I]-RANTES, room temperature 30 minutes; for inhibition at 1 µM: read-out: Inhibition Rate (%) to CCR5 binding
T1 construct: expressed in transfected cells; host or cells: CHO-K1 cells, geneticin-resistant clone CHO/CCR5
T1 sequence (P51681 whole entry): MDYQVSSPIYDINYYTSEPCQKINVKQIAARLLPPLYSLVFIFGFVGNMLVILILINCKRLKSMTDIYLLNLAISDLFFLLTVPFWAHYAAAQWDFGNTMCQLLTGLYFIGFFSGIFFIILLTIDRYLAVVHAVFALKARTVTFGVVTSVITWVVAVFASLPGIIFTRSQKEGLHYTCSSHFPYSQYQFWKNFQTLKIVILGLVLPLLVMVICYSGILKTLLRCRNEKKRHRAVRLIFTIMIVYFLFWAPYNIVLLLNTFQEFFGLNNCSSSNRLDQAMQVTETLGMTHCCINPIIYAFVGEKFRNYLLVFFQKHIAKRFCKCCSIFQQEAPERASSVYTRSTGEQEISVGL
Description: Cloning of CCR5 gene was carried out by PCR (polymerase chain reaction) from human spleen cDNA. With using 0.5 ng of spleen cDNA (Toyobo, QUICK-Clone cDNA) as template, PCR was performed in DNA Thermal Cycler 480 (Perkin-Elmer) (reaction conditions: 30 cycles of 95° C. for 1 minute, 60° C. for 1 minute, and 75° C. for 5 minutes) by adding primer set, 5′-CAGGATCCGATG […]-3′ (25 pmol) and 5′-TCTAGATCACAAGCC CACAGATATTTCCTGCTCC-3′ (25 pmol), which were designed referring to nucleotide sequence of CCR5 gene reported by Samson et al. (Biochemistry, 35(11), 3362-3367 (1996)) and by using TaKaRa EX Taq (Takara Shuzo). The resultant PCR product was subjected to agarose gel electrophoresis to collect about 1.0 kb DNA fragment, which was subjected to Original TA Cloning Kit (Funakoshi) to carry out cloning of CCR5 gene.
The plasmid obtained in the above (1) was digested with restriction enzymes XbaI (Takara Shuzo) and BamHI (Takara Shuzo) and subjected to agarose gel electrophoresis to collect about 1.0 kb DNA fragment. The DNA fragment was mixed with plasmid pcDNA3.1 (Funakoshi) for expression in animal cells, said plasmid being digested with XbaI and BamHI, and they were ligated with DNA Ligation Kit Ver.2 (Takara Shuzo). The resulting plasmid was subjected to transformation of competent cell of E. coli JM109 (Takara Shuzo) to obtain plasmid pCKR5.
CHO-K1 cells were grown in 750 ml of tissue culture flask (Becton Dickinson) using Ham's F12 medium (Nihon Pharmaceutical) containing 10% fetal calf serum (Life Tech Oriental) and took off with 0.5 g/L trypsin-0.2 g/L EDTA (Life Tech Oriental). The cells were washed with PBS (Life Tech Oriental), centrifuged (1000 rpm, 5 minutes), and suspended in PBS. With using Gene Pulser (Bio-Rad Laboratories), DNA was introduced into the cells under the conditions shown below. That is, to the cuvette of 0.4 cm gap were added 8×10^6 cells and 10 μg of plasmid pCKR5 for expression of human CCR5, and electroporation was carried out under 0.25 kV of voltage and 960 μF of capacitance. The cells were transferred into Ham's F12 medium (Nihon Pharmaceutical) containing 10% fetal calf serum, and cultivated for 24 hours. The cells were again took off and centrifuged, and suspended in Ham's F12 medium (Nihon Pharmaceutical) containing 10% fetal calf serum and 500 μg/ml of geneticin (Life Tech Oriental). The suspension was diluted to give 1 cells/ml of the suspension, which was inoculated on 96 well plate (Becton Dickinson) to give geneticin resistant cells. The resulting geneticin resistant cells were cultivated in 96 well plate (Becton Dickinson), and cells expressing CCR5 were selected from the geneticin resistant cells. That is, in assay buffer (Ham's F12 medium containing 0.5% BSA and 20 mM HEPES (Wako Pure Chemical, pH7.2) to which was added 200 pM of [^125I]-RANTES (Amersham) as ligand, binding reaction was carried out at room temperature for 40 minutes, and the buffer was washed with cooled PBS. To the buffer was added 50 μl/well of 1M NaOH, and the mixture was stirred. Radioactivity was determined with γ-counter to select CHO/CCR5 cells which specifically bind to the ligand.
The CHO/CCR5 were inoculated on 96 well microplate (5×10^4 cells/well) and cultivated for 24 hours. […] Radio-activity was determined with Top-Count Micro Scintillation Counter (Packard Instrument, Inc.). […]

[2] = system: HIV-1 BA-L; assay: Inhibitory effect on HIV-1 infection to human PBMC; format: cell-based; conditions: human PBMC stimulated with PHA and IL-2, 7 days
Description: From normal person human peripheral blood mononuclear cells (PBMC) were separated, and the cells were stimulated with 10 μg/ml of PHA (Phytohemaglutinin) and 20 U/ml of interleukin-2 (IL-2) for 3 days. The cells were suspended in RPMI-1640 medium containing 20% serum to prepare 1×10^6/ml suspension. To the suspension were infected HIV-1 BA-L cells (20 ng as an amount of p24 antigen), and viruses were absorbed at 37° C. for 2 hours. The cells were washed and suspended in RPMI-1640 medium containing 20% serum and IL-2 20 U/ml to prepare 1×10^5/ml suspension. To the PBMC suspension was added the same amount of a solution which contains 2.0 μM of Test Compound 96 or 0.32 μM of Test Compound 248, and the cells were cultivated at 37° C. for 7 days in carbon dioxide gas incubator. The amount of p24 antigen in supernatant of the cultivated medium was determined by enzyme-linked immunosorbent assay (ELISA) and defined as degree of HIV-1 infection.

[3] = system: HIV-1 BA-L; assay: Inhibitory effect on HIV-1 infection to MAGI-CCR5 cell; format: cell-based; conditions: 2 days
Description: The plasmid where β-galactosidase gene was ligated downstream of HIV-1 LTR was introduced into CD4 positive HeLa cell, to which human CCR5 was further introduced to obtain transformant MAGI-CCR5. By using said transformant MAGI-CCR5, degree of HIV-1 infection was calculated from β-galactosidase activity (blue color due to decomposition of 5-bromo-4-chloro-3-indolyl-β-D-galactopyranoside). Specifically, MAGI-CCR5 cells were suspended in DMEM medium containing 10% serum to prepare 5×10^4 cells/ml suspension. To each well of 96 well plate was inoculated 200 μl of the suspension, and the cells were cultivated at 37° C. overnight. The medium was removed by means of suction, and to the residue was added 100 μl of the above medium containing 1.6 μM of Test Compound 96 or 0.064 μM of Test Compound 248 and 100 μl of the above medium containing 300PFU of HIV-1 BA-L cells. The cells were cultivated at 37° C. for 2 days. The medium was removed by means of suction. To the residue was added 200 μl of cell fixative (PBS containing 1% formaldehyde and 0.2% glutaraldehyde), and the mixture was allowed to stand at room temperature for 5 minutes and washed twice with PBS. […] The number of blue cells was counted by microscope and defined as the number of cells infected with HIV-1.

Row | Compound | Inhibition Rate (%) to CCR5 binding [1] [%] | inhibition at 1 µM [1] [%] | further results
1 | CCOc1ccc(-c2ccc3c(c2)C=C(C(=O)Nc2ccc(C[N+](C)(C)C4CCOCC4)cc2)CCO3)cc1 [Compound 250, N-(4-(((7-(4-ethoxyphenyl)-2,3-dihydro-1-benzoxepin-4-yl)carbonyl)amino)benzyl)-N,N-dimethyl-N-(4-tetrahydropyranyl)ammonium chloride] | – | 96 | –
2 | Cc1ccc(-c2ccc3c(c2)C=C(C(=O)Nc2ccc(C[N+](C)(C)C4CCOCC4)cc2)CCC3)cc1 [Compound 248, N,N-dimethyl-N-(4-(((2-(4-methylphenyl)-6,7-dihydro-5H-benzocyclohepten-8-yl)carbonyl)amino)benzyl)-N-(4-tetrahydropyranyl)ammonium chloride] | – | 99 | inhibition on HIV-1 infection (p24 antigen in supernatant, ELISA) ([2]; same amount of a solution containing 0.32 μM of Test Compound added): 74%; inhibition on HIV-1 infection (number of blue cells) ([3]; 100 μl medium containing 0.064 μM of Test Compound plus 100 μl medium with 300PFU HIV-1 BA-L): 100%
3 | Cc1ccc(-c2ccc3c(c2)C=C(C(=O)Nc2ccc(C[N+]4(C)CCCCC4)cc2)CCO3)cc1 [Compound 96, 1—(N-(7—(4-methylphenyl)-2,3-dihydro-1-benzoxepin-4-carbonyl)-4-aminobenzyl)-1-methylpiperidinium iodide] | – | – | inhibition on HIV-1 infection (p24 antigen in supernatant, ELISA) ([2]; same amount of a solution containing 2.0 μM of Test Compound added): 96%; inhibition on HIV-1 infection (number of blue cells) ([3]; 100 μl medium containing 1.6 μM of Test Compound plus 100 μl medium with 300PFU HIV-1 BA-L): 92%
4 | Cc1ccc(-c2ccc(/C=C/C(=O)Nc3ccc(CP4(=O)CCCCC4)cc3)s2)cc1 [Compound 209, (E)-N-(4-pentamethylenephosphorylmethylphenyl)-3-[5—(4-methylphenyl)thiophen-2-yl]acrylic amide] | 80 | – | –

The next lines start with results.

Row | Inhibition Rate (%) to CCR5 binding [1] [%] | Compound | inhibition at 1 µM [1] [%] | further results
5 | 99 | CC(C)(C)c1ccc(-c2ccc3c(c2)C=C(C(=O)Nc2ccc(CP4(=O)CCCCC4)cc2)CCO3)cc1 [Compound 180, N-(4—(pentamethylene)phosphorylmethylphenyl)-7—(4-tert-butylphenyl)-2,3-dihydro-1-benzoxepine-4-carboxamide] | – | –
6 | 100 | N-((7—(4-methylphenyl)-2,3-dihydro-1-benzoxepin-4-carbonyl)-2—(4-aminophenyl)ethyl)-N-methylpiperidinium iodide [Compound 100] | – | –
